# According to PubChem BioAssay AID1963838 (Molecular Pharmacology Branch, DTP, NCI, 2024):
# Tested on: 855422-203-R-J1-PDC complex spheroid viability
# Test: Anticancer human tumor 855422-203-R-J1-PDC patient-derived bladder carcinoma cell line growth inhibition [POLQ]
# Conditions: for IC50: curve of first compound; for viability, T/C: stronger effect = lower value
# Experimental: Multicellular complex tumor spheroid response to Polymerase (POL) inhibitors (novobiocin, ART-558, RP6685) in combination with a variety of drugs and investigational agents in selected tumor cell lines
# The POL inhibitors (novobiocin, ART-558, and RP6685) were evaluated both individually and in combination with standard of care and investigational anticancer small molecules within a complex spheroid model of solid tumors. . Complex spheroids include a stromal component modeled by human endothelial cells (HUVEC) and fibroblasts modeled by human mesenchymal stem cells (MSCs). The concentration ranges selected for each drug and investigational agent were based upon clinically achievable concentrations if the clinical Cmax of the agent was known.
# Compounds. The drugs and investigational agents: novobiocin (NSC847541), ART-558 (NSC835418), RP-6685 (NSC848927), peposertib (NSC802822), ceralasertib (NSC780249), elimusertib (NSC800525), camonsertib (NSC841442), AZD-1390 (NSC803789), olaparib (NSC753686), talazoparib (NSC767125), rucaparib (NSC756644), sotorasib (NSC818433), MRTX-1133 (NSC836407), SN-38 (NSC673596), topotecan (NSC609699), epotoside (NSC141540), doxorubicin (NSC123127), gemcitabine (NSC613327), 5-fluorouracil (NSC19893), paclitaxel (NSC125973), vemurafenib (NSC761431), MSA-2 (NSC828583), SN-011 (NSC837082), adavosertib (NSC754352), prexasertib (NSC758257), carboplatin (NSC241240) and oxaliplatin (NSC266046), were obtained from the National Cancer Institute (NCI) Developmental Therapeutics Program Chemical Repository (21). The FDA-approved anticancer drug set is available from the Developmental Therapeutics Program at https://dtp.cancer.gov/organization/dscb/obtaining/. […] The stock solutions were prepared in dimethyl sulfoxide (DMSO, Sigma-Aldrich, St. Louis, MO, cat. D2650), except for the platinum compounds which were prepared in saline (Quality Biological, Gaithersburg, MD, cat. 114-055-101), at 800-fold the tested concentration and stored at -70 degrees C prior to their use. All drugs and investigational agents were tested over a range starting from a high concentration at or near the clinical Cmax and decreasing in half-log increments. If the clinical Cmax for an agent had not been determined, the highest concentration tested was 10 microM, except for SN-38, which was tested at a high concentration of 1 microM.
# Cell Culture. All cells were maintained in an incubator at 37 degrees C and 5% CO2 with 95% humidity. The PDC lines were cultured according to standard operating procedures established by the NCI PDMR (https://pdmr.cancer.gov). Table 3 of the manuscript, lists the cell lines along with the number of the three cell types plated to form the mct-spheroids and media for tumor cell growth. After thawing, all PDC lines, except 997537-175-T-J1-PDC and 415267-285-R-J2-PDC, were cultured in Matrigel-coated flasks prepared with a working solution of 1X Ham's F-12 nutrient mix, without supplementation (Thermo Fisher Scientific, cat. 11765054), 100 U/mL penicillin-streptomycin (Thermo Fisher Scientific, cat. 15140122), and 2.5% Matrigel (Corning Inc., Corning, NY, cat. 354248) for the first three passages. The two PDC lines 997537-175-T-J1-PDC and 415267-285-R-J2-PDC were cultured on uncoated flasks. The 857933-349-R-J2-PDC line was cultured in 6C/Colon 1B media containing advanced DMEM/F-12 (Thermo Fisher Scientific, cat. 12634028), 10 mM HEPES (Thermo Fisher Scientific, cat. 15630080), 1X GlutaMAX supplement (Thermo Fisher Scientific, cat. 35050061), 0.1 mg/mL primocin (InvivoGen, San Diego, CA, cat. ant-pm-2), 10% defined fetal bovine serum, heat inactivated (HyClone Laboratories Inc., Logan, UT, cat. SH30070.03HI), 50% L-WRN conditioned media (ATCC, cat. CRL-3276), 1.25 mM N-Acetyl-L-cysteine (Sigma-Aldrich, cat. A9165), 10 mM nicotinamide (Sigma-Aldrich, cat. N0636), 1X B-27 supplement (Thermo Fisher Scientific, cat. 17504044), 1X N-2 supplement (Thermo Fisher Scientific, cat. […]
# 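Also: spheroids exposed to compounds for seven days before readout.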
smiles,measurement,setting,value
CC(=O)O[C@H]1C(=O)[C@@]2(C)[C@H]([C@H](OC(=O)c3ccccc3)[C@]3(O)C[C@H](OC(=O)[C@H](O)[C@@H](NC(=O)c4ccccc4)c4ccccc4)C(C)=C1C3(C)C)[C@]1(OC(C)=O)CO[C@@H]1C[C@@H]2O + Nc1ccc(C#CCN(C(=O)Cc2ncc(C(F)(F)F)cc2C(F)(F)F)c2ccc(F)cc2)nn1,IC50,second compound 0.0316 µM,< 9.49 nM
same,IC50,second compound 0.1 µM,< 9.49 nM
same,IC50,second compound 0.316 µM,< 9.49 nM
same,IC50,second compound 1 µM,< 9.49 nM
same,IC50,second compound 3.16 µM,< 9.49 nM
same,IC50,second compound 10 µM,< 9.49 nM
same,"viability, T/C","second compound 0.0316 µM, first compound 0.00949 µM",9.1%
same,"viability, T/C","second compound 0.0316 µM, first compound 0.03 µM",8.18%
same,"viability, T/C","second compound 0.0316 µM, first compound 0.0949 µM",10.3%
same,"viability, T/C","second compound 0.0316 µM, first compound 0.3 µM",9.92%
same,"viability, T/C","second compound 0.0316 µM, first compound 0.949 µM",7.22%
same,"viability, T/C","second compound 0.0316 µM, first compound 3 µM",9.23%
same,"viability, T/C","second compound 0.1 µM, first compound 0.00949 µM",12.1%
same,"viability, T/C","second compound 0.1 µM, first compound 0.03 µM",8.86%
same,"viability, T/C","second compound 0.1 µM, first compound 0.0949 µM",8.29%
same,"viability, T/C","second compound 0.1 µM, first compound 0.3 µM",9.07%
same,"viability, T/C","second compound 0.1 µM, first compound 0.949 µM",6.61%
same,"viability, T/C","second compound 0.1 µM, first compound 3 µM",8.93%
same,"viability, T/C","second compound 0.316 µM, first compound 0.00949 µM",10.2%
same,"viability, T/C","second compound 0.316 µM, first compound 0.03 µM",10%
same,"viability, T/C","second compound 0.316 µM, first compound 0.0949 µM",7.73%
same,"viability, T/C","second compound 0.316 µM, first compound 0.3 µM",7.49%
same,"viability, T/C","second compound 0.316 µM, first compound 0.949 µM",7.31%
same,"viability, T/C","second compound 0.316 µM, first compound 3 µM",7.76%
same,"viability, T/C","second compound 1 µM, first compound 0.00949 µM",9.77%
same,"viability, T/C","second compound 1 µM, first compound 0.03 µM",10.3%
same,"viability, T/C","second compound 1 µM, first compound 0.0949 µM",7.55%
same,"viability, T/C","second compound 1 µM, first compound 0.3 µM",9.06%
same,"viability, T/C","second compound 1 µM, first compound 0.949 µM",7.76%
same,"viability, T/C","second compound 1 µM, first compound 3 µM",9.17%
same,"viability, T/C","second compound 3.16 µM, first compound 0.00949 µM",14.2%
same,"viability, T/C","second compound 3.16 µM, first compound 0.03 µM",8.33%
same,"viability, T/C","second compound 3.16 µM, first compound 0.0949 µM",9.73%
same,"viability, T/C","second compound 3.16 µM, first compound 0.3 µM",9.4%
same,"viability, T/C","second compound 3.16 µM, first compound 0.949 µM",12.7%
same,"viability, T/C","second compound 3.16 µM, first compound 3 µM",10.1%
same,"viability, T/C","second compound 10 µM, first compound 0.00949 µM",12.2%
same,"viability, T/C","second compound 10 µM, first compound 0.03 µM",10.5%
same,"viability, T/C","second compound 10 µM, first compound 0.0949 µM",11.7%
same,"viability, T/C","second compound 10 µM, first compound 0.3 µM",9.8%
same,"viability, T/C","second compound 10 µM, first compound 0.949 µM",7.89%
same,"viability, T/C","second compound 10 µM, first compound 3 µM",9.4%
COc1cccc2c1C(=O)c1c(O)c3c(c(O)c1C2=O)CC(O)(C(=O)CO)CC3OC1CC(N)C(O)C(C)O1 (centres undefined) + Nc1ccc(C#CCN(C(=O)Cc2ncc(C(F)(F)F)cc2C(F)(F)F)c2ccc(F)cc2)nn1,IC50,second compound 0.0316 µM,< 31.6 nM
same,IC50,second compound 0.1 µM,< 31.6 nM
same,IC50,second compound 0.316 µM,< 31.6 nM
same,IC50,second compound 1 µM,< 31.6 nM
same,IC50,second compound 3.16 µM,< 31.6 nM
same,IC50,second compound 10 µM,< 31.6 nM
same,"viability, T/C","second compound 0.0316 µM, first compound 0.0316 µM",26.2%
same,"viability, T/C","second compound 0.0316 µM, first compound 0.1 µM",12.8%
same,"viability, T/C","second compound 0.0316 µM, first compound 0.316 µM",3.75%
same,"viability, T/C","second compound 0.0316 µM, first compound 1 µM",0.9%
same,"viability, T/C","second compound 0.0316 µM, first compound 3.16 µM",1.51%
same,"viability, T/C","second compound 0.0316 µM, first compound 10 µM",4.81%
same,"viability, T/C","second compound 0.1 µM, first compound 0.0316 µM",25.7%
same,"viability, T/C","second compound 0.1 µM, first compound 0.1 µM",12.2%
same,"viability, T/C","second compound 0.1 µM, first compound 0.316 µM",3.22%
same,"viability, T/C","second compound 0.1 µM, first compound 1 µM",0.93%
same,"viability, T/C","second compound 0.1 µM, first compound 3.16 µM",1.37%
same,"viability, T/C","second compound 0.1 µM, first compound 10 µM",3.69%
same,"viability, T/C","second compound 0.316 µM, first compound 0.0316 µM",26%
same,"viability, T/C","second compound 0.316 µM, first compound 0.1 µM",12.8%
same,"viability, T/C","second compound 0.316 µM, first compound 0.316 µM",2.51%
same,"viability, T/C","second compound 0.316 µM, first compound 1 µM",0.82%
same,"viability, T/C","second compound 0.316 µM, first compound 3.16 µM",1.39%
same,"viability, T/C","second compound 0.316 µM, first compound 10 µM",5.31%
same,"viability, T/C","second compound 1 µM, first compound 0.0316 µM",24.3%
same,"viability, T/C","second compound 1 µM, first compound 0.1 µM",11.5%
same,"viability, T/C","second compound 1 µM, first compound 0.316 µM",4.7%
same,"viability, T/C","second compound 1 µM, first compound 1 µM",0.92%
same,"viability, T/C","second compound 1 µM, first compound 3.16 µM",1.13%
same,"viability, T/C","second compound 1 µM, first compound 10 µM",6.67%
same,"viability, T/C","second compound 3.16 µM, first compound 0.0316 µM",26.3%
same,"viability, T/C","second compound 3.16 µM, first compound 0.1 µM",12.7%
same,"viability, T/C","second compound 3.16 µM, first compound 0.316 µM",4.52%
same,"viability, T/C","second compound 3.16 µM, first compound 1 µM",1.14%
same,"viability, T/C","second compound 3.16 µM, first compound 3.16 µM",1.38%
same,"viability, T/C","second compound 3.16 µM, first compound 10 µM",4.89%
same,"viability, T/C","second compound 10 µM, first compound 0.0316 µM",21.4%
same,"viability, T/C","second compound 10 µM, first compound 0.1 µM",12.1%
same,"viability, T/C","second compound 10 µM, first compound 0.316 µM",2.85%
same,"viability, T/C","second compound 10 µM, first compound 1 µM",2.62%
same,"viability, T/C","second compound 10 µM, first compound 3.16 µM",1.74%
same,"viability, T/C","second compound 10 µM, first compound 10 µM",5.86%
